Data on 52 sequences can be found in the supplement of paper PMC11208160.
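Note: IS621 bridge recombinase in Escherichia coli cells against a fixed T5 target plasmid.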

This series in a line: recombinant UMI read abundance after kanamycin selection (control-corrected) (log10(CPM+1)); higher = more efficient recombination; extreme values may be limits of the assay; sequences stand for … in AGTGCAGAGAAAATCGGCCAGTTTTCTCTGCCTGCAGTCCGCATGCCGTGGGACCCCTTGGGTTCTAACCTGTTGCCTAGATTTATGCAGCGGACTGCCTTTCTCCCAAAGTGATAAACCGG…AGGTTGGTTTCACT; site = the 11-nt donor. The method, boiled down: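 Two replicates each of selected and unselected plating were used in this pooled Escherichia coli screen of donor and donor-binding-loop pairs for the IS621 bridge recombinase. Selection was with IPTG (0.07 mM) and kanamycin. Counts of recombinant UMIs, amplified across the donor–target junction, were converted to CPM, averaged, scaled by control-derived factors and reported as log10(CPM+1).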
Turning to “TGTTCCCCATGGACCGGTTTTCCCGGTAATCCGTATTTGTA (site TGTTCCCCTAA)”, the “recombinant UMI read abundance (log10)” value was 0.0105.
Take “TGTTCCCCATGGACCGGTTTTCCCGGTAATCCGTATTTGTA (site TGTTCCCCTCA)”: the “recombinant UMI read abundance (log10)” value was 0.0333.
The figure for “TGTTCCCCATGGACCGGTTTTCCCGGTAATCCGTATTTGTA (site TGTTCCCCTGA)” is 0.
The figure for “TGTTCCCCATGGACCGGTTTTCCCGGTAATCCGTATTTGTA (site TGTTCCCCTTA)” is 0.625; for “TGTTCCCCATGGACCGGTTTTCCCGGTAATCCGTATTTGTA (site TGTTCCCCTTC)” it is 0.00924; for “TGTTCCCCATGGACCGGTTTTCCCGGTAATCCGTATTTGTA (site TGTTCCCCTTG)” it is 0.00318.
Regarding “TGTTCCCCATGGACCGGTTTTCCCGGTAATCCGTATTTGTA (site TGTTCCCCTTT)”, the “recombinant UMI read abundance (log10)” value came out at 0.0256.
The figure for “TGTTCCCCATGGACCGGTTTTCCCGGTAATCCGTATTTGTA (site TGTTCCGCTTA)” is 0.0259.
Next, “TGTTCCCCATGGACCGGTTTTCCCGGTAATCCGTATTTGTA (site TGTTCCTCTTA)”: 0.105.
Next, “TGTTCCCCATGGACCGGTTTTCCCGGTAATCCGTATTTGTA (site TGTTCGCCTTA)”: 0.0106.
For “TGTTCCCCATGGACCGGTTTTCCCGGTAATCCGTATTTGTA (site TGTTCTCCTTA)”, the “recombinant UMI read abundance (log10)” value worked out at 0.0643.
Regarding “TGTTCCCCATGGACCGGTTTTCCCGGTAATCCGTATTTGTA (site TGTTGCCCTTA)”, the “recombinant UMI read abundance (log10)” value was determined as 0.0058.
As to “TGTTCCCCATGGACCGGTTTTCCCGGTAATCCGTATTTGTA (site TGTTTCCCTTA)”, the “recombinant UMI read abundance (log10)” value was 0.381.
The figure for “TGTTCCCCATGGACCGGTTTTCCCGGTAATCCGTATTTGTA (site TTTTCCCCTTA)” is 0.0217; for “TGTTGCCCATGGACCGGTTTTCCCGGTAATCCGTATTTGTA (site TGTTACCCTTA)” it is 0.032.
Next, “TGTTGCCCATGGACCGGTTTTCCCGGTAATCCGTATTTGTA (site TGTTCCCCTTA)”: 0.324; “TGTTGCCCATGGACCGGTTTTCCCGGTAATCCGTATTTGTA (site TGTTGCCCTTA)”: 0.0196.
The figure for “TGTTGCCCATGGACCGGTTTTCCCGGTAATCCGTATTTGTA (site TGTTTCCCTTA)” is 0.0108.
Turning to “TGTTGTTCATGGACCGGTTTTCCCGGTAATCCGTATTTGAA (site TGTTGTTCTTT)”, the “recombinant UMI read abundance (log10)” value amounted to 0.472.
“TTAACTGCATGGACCGGTTTTCCCGGTAATCCGTATTTGTG (site TTAACTGCTCA)”: the “recombinant UMI read abundance (log10)” value is 0.697.
Next, “TTAACTGCATGGACCGGTTTTCCCGGTAATCCGTATTTGTG (site TTACCTGCTCA)”: 0.00413; “TTAACTGCATGGACCGGTTTTCCCGGTAATCCGTATTTGTG (site TTAGCTGCTCA)”: 0.00337.
Next, “TTAACTGCATGGACCGGTTTTCCCGGTAATCCGTATTTGTG (site TTATCTGCTCA)”: 0.0133; “TTAAGCCCATGGACCGGTTTTCCCGGTAATCCGTATTTGGT (site TTAAGCCCTAC)”: 0.174.
Next, “TTAATTCCATGGACCGGTTTTCCCGGTAATCCGTATTTGTT (site TTAATTCCTAA)”: 0.0021; “TTACAATCATGGACCGGTTTTCCCGGTAATCCGTATTTGGG (site TTACAATCTCC)”: 0.
For “TTACATTCATGGACCGGTTTTCCCGGTAATCCGTATTTGAC (site TTACATTCTGT)”, the “recombinant UMI read abundance (log10)” value stood at 1.68.
Turning to “TTACCATCATGGACCGGTTTTCCCGGTAATCCGTATTTGAC (site TTACCATCTGT)”, the “recombinant UMI read abundance (log10)” value turned out to be 2.16.
The figure for “TTACCTTCATGGACCGGTTTTCCCGGTAATCCGTATTTGTC (site TTACCTTCTGA)” is 0.519; for “TTAGAAACATGGACCGGTTTTCCCGGTAATCCGTATTTGAT (site TTAGAAACTAT)” it is 2.51.
Next, “TTAGAGGCATGGACCGGTTTTCCCGGTAATCCGTATTTGGA (site TTAGAGGCTTC)”: 0.701.
Consider “TTAGATGCATGGACCGGTTTTCCCGGTAATCCGTATTTGTG (site TTAGATGCTCA)”, for which the “recombinant UMI read abundance (log10)” value was determined as 1.52.
“TTAGATGCATGGACCGGTTTTCCCGGTAATCCGTATTTGTG (site TTAGCTGCTCA)”: the “recombinant UMI read abundance (log10)” value amounted to 0.0227.
Next, “TTAGATGCATGGACCGGTTTTCCCGGTAATCCGTATTTGTG (site TTAGGTGCTCA)”: 0.00706.
The figure for “TTAGATGCATGGACCGGTTTTCCCGGTAATCCGTATTTGTG (site TTAGTTGCTCA)” is 0.00838.
Next, “TTAGCCGCATGGACCGGTTTTCCCGGTAATCCGTATTTGTG (site TTAGCAGCTCA)”: 0.108; “TTAGCCGCATGGACCGGTTTTCCCGGTAATCCGTATTTGTG (site TTAGCCGCTCA)”: 0.564.
For the sequence “TTAGCCGCATGGACCGGTTTTCCCGGTAATCCGTATTTGTG (site TTAGCGGCTCA)”, the “recombinant UMI read abundance (log10)” value amounted to 0.0427.
The figure for “TTAGCCGCATGGACCGGTTTTCCCGGTAATCCGTATTTGTG (site TTAGCTGCTCA)” is 0.00693; for “TTAGCTCCATGGACCGGTTTTCCCGGTAATCCGTATTTGTG (site TTAGCTACTCA)” it is 0.00349.
Next, “TTAGCTCCATGGACCGGTTTTCCCGGTAATCCGTATTTGTG (site TTAGCTCCTCA)”: 0.0123.
The figure for “TTAGCTCCATGGACCGGTTTTCCCGGTAATCCGTATTTGTG (site TTAGCTGCTCA)” is 0.00795.
Take “TTAGCTCCATGGACCGGTTTTCCCGGTAATCCGTATTTGTG (site TTAGCTTCTCA)”: the “recombinant UMI read abundance (log10)” value was determined as 0.0128.
In the case of “TTAGCTGCATGGACCGGTTTTCCCGGTAATCCGTATTTGAG (site TTAGCTGCTCA)”, the “recombinant UMI read abundance (log10)” value was 0.025.
Next, “TTAGCTGCATGGACCGGTTTTCCCGGTAATCCGTATTTGAG (site TTAGCTGCTCC)”: 0.0699.
In the case of “TTAGCTGCATGGACCGGTTTTCCCGGTAATCCGTATTTGAG (site TTAGCTGCTCG)”, the “recombinant UMI read abundance (log10)” value was determined as 0.0144.
Take “TTAGCTGCATGGACCGGTTTTCCCGGTAATCCGTATTTGAG (site TTAGCTGCTCT)”: the “recombinant UMI read abundance (log10)” value came out at 0.839.
The figure for “TTAGCTGCATGGACCGGTTTTCCCGGTAATCCGTATTTGCG (site TTAGCTGCTCA)” is 0.00643; for “TTAGCTGCATGGACCGGTTTTCCCGGTAATCCGTATTTGCG (site TTAGCTGCTCC)” it is 0.0194.
On to “TTAGCTGCATGGACCGGTTTTCCCGGTAATCCGTATTTGCG (site TTAGCTGCTCG)”, for which the “recombinant UMI read abundance (log10)” value amounted to 1.41.
Next, “TTAGCTGCATGGACCGGTTTTCCCGGTAATCCGTATTTGCG (site TTAGCTGCTCT)”: 0.00813; “TTAGCTGCATGGACCGGTTTTCCCGGTAATCCGTATTTGTA (site TTAGCTGCTAA)”: 0.0184.
